Experimental data as given in patent US8580847B2, “Antrocin containing pharmaceutical compositions for inhibiting cancer cells” (Chaoyang University of Technology, priority 2010, dated 2013).

How the values were obtained:
[1] = tested on: MCF-7 human breast carcinoma cells; assay: SRB cytotoxicity assay, MCF-7; type: cell-based
Method: (§1) MCF-7 and MDA-MB-231 breast tumor cell lines came from a pleural effusion of patients with invasive breast carcinoma. The MCF-10A cell line is a non-tumorigenic epithelial cell line. All three human cell lines were provided by the American Type Culture Collection (ATCC). In the present invention, MDA-MB-231 cells were grown in Dulbecco's Modified Eagle's Medium (DMEM) media with 10% FBS, 2 mM glutamine, 100 μg/ml streptomycin in a 37° C. humidified atmosphere with CO2. MCF-7 were cultured in DMEM media supplemented with 2 mM L-glutamine, 100 μg/ml streptomycin, 10% fetal bovine serum, 0.04 UI/ml insulin in a humidified atmosphere at 37° C. containing 5% CO2. MCF10A cells were maintained in DMEM containing 5% horse serum, 2 mM L-glutamine, 20 μg/ml gentamycin, 20 ng/ml epidermal growth factor, 100 ng/ml cholera toxin, 0.25 UI/ml insulin and 0.5 μg/ml hydrocortisone held at 37° C. with 5% CO2.
(§2) Antrocin was dissolved in DMSO at a concentration of 10 mM and was stored in a dark-colored bottle at −20° C. as a stock solution. The stock was diluted to the required concentration with serum-free medium immediately before use. […]
(§3) Briefly, three breast cancer cells (MDA-MB-231, MCF-7 & MCF-10A) were seeded into 96-well plates in growth medium at 3000 cells/well for 24 h. […] Optical densities were read on a microplate reader (Molecular Devices, Sunnyvale, Calif.) at 562 nm.

MDA-MB-231 cells [2] = assay: Cell cycle analysis by PI flow cytometry; type: cell-based, human; settings: 48 hr, MDA-MB-231 (FIG. 5)
Method: A total of 2×10^5 MDA-MB-231 cells/dish were seeded onto each 60 mm dish and incubated for 24 h. Various concentration of antrocin were added to the culture media, and the cells were incubated for an additional 48 hr. Cells were harvested and fixed in cold 75% ethanol at 4° C. for 16 h and incubated with 20 μg/ml RNase A at 37° C. for 30 min and then with 40 μg/ml propidium iodide (PI) at 4° C. for 30 min. Samples were immediately analyzed with a FACSCalibur flow cytometer (Becton, Dickinson and Co., San Jose, Calif). Approximately 10,000 counts were made for each sample. The percentage distributions of apoptotic cells were calculated by CellQuest™ software (Becton, Dickinson and Co., San Jose, Calif.).

[3] = tested on: human cancer cell lines (HT-29, HCT116, Huh7, A549, MCF7, MDA-MB-231); assay: SRB anti-proliferative assay on human cancer cell lines; type: cell-based
Method: Antrocin was dissolved in DMSO at a concentration of 10 mM and was stored in a dark-colored bottle at −20° C. as a stock solution. The stock was diluted to the required concentration with serum-free medium immediately before use. Before treatment with antrocin, the medium was removed when cells were about 70% confluent, the cells were starved overnight in serum-free medium and then exposed to antrocin at different concentrations (0-10 μM) and for different periods of time (0-48 h).
(§4) Briefly, three breast cancer cells (MDA-MB-231, MCF-7 & MCF-10A) were seeded into 96-well plates in growth medium at 3000 cells/well for 24 h. Then, the cells were treated with antrocin at various concentrations (0, 0.5, 1, 3, 5 and 10 μM) for various periods of time. After the exposure period, the cells were fixed with TCA for 1 hour and stained with 100 μL of 0.4% (w/v) SRB for 10 minutes at room temperature. The bound dye was solubilized in 20 mM Tris base (100 μL/well) for 5 minutes on a shaker. Optical densities were read on a microplate reader (Molecular Devices, Sunnyvale, Calif.) at 562 nm.
(§5) The anti-proliferative effects of antrocin were assessed on human cancer cell lines, using the SRB assay, with normal foreskins fibroblast HS68 cells and non-tumorgenic breast epithelial MCF-10A cells as controls.

[4] = tested on: non-tumorgenic breast epithelial MCF-10A cells; assay: SRB assay, non-tumorgenic MCF-10A cells; type: cell-based, human; settings: SRB assay (FIG. 2)
Method: as §1, §2, §3

MDA-MB-231 cells [5] = assay: Cell morphology studies by phase microscopy; type: cell-based, human; settings: 48 hr incubation, various concentration, phase-contrast microscope (FIG. 4)
Method: After treatment with different dose of antrocin for 48 hr, the MDA-MB-231 cells, cultured on glass coverslips, were washed three times with PBS, fixed with 3% paraformaldehyde for 10 min at room temperature, and then washed in PBS again, and the morphological changes were observed. Cell morphology was then observed by phase microscopy.

[6] = tested on: normal foreskins fibroblast HS68 cells; assay: SRB assay, normal HS68 cells; type: cell-based, human; settings: SRB assay (FIG. 2)
Method: as §4, §5

[7] = tested on: MDA-MB-231 human breast cancer cells; assay: SRB cytotoxicity assay, MDA-MB-231; type: cell-based
Method: as §1, §2, §3

SMILES: C=C1CCC2C(C)(C)CCCC23C(=O)OCC13 (centres unmarked) [antrocin]
- cell growth inhibition, MDA-MB-231 compared with MCF-7 [1]: more effective in MDA-MB-231 cells in comparison with MCF-7
- progression to apoptosis (apoptotic cells) (MDA-MB-231 cells [2]; 10 μM antrocin): 58.3%
- cell cycle distribution (MDA-MB-231 cells [2]; different dose): accumulated progressively in subG1 phase
- inhibition activity to cancer cell lines ([3]; HT-29, HCT116, Huh7, A549, MCF7, MDA-MB-231): high inhibition activity
- growth of cancer cells ([3]; SRB assay, all cancer cells tested (FIG. 1)): inhibited in a concentration-dependent manner
- antiproliferative effect / growth inhibition on MCF-10A cells [4]: no antiproliferative effect
- antiproliferative effect / growth inhibition on MCF-10A cells ([4]; listed as Antrocin): no significant inhibition
- morphological alterations (MDA-MB-231 cells [5]): cell shrinkage, membrane blebbing, apoptotic body formation
- antiproliferative effect on HS68 cells [6]: no antiproliferative effect
- cell growth inhibition compared with doxorubicin or cisplatin ([7]; MDA-MB-231, 48 hr treatment, same dosage (FIG. 3)): more potent than doxorubicin or cisplatin
- MDA-MB-231 cell growth ([7]; antrocin concentration of 0.5 μM): significantly inhibited
